Experimental data taken from patent US20100216767A1, “QUINAZOLINES FOR PDK1 INHIBITION” (priority 2006, published 2010).

Target: T1, PDK1 kinase (Homo sapiens, UniProt O15530)
T1 sequence (O15530 1-556): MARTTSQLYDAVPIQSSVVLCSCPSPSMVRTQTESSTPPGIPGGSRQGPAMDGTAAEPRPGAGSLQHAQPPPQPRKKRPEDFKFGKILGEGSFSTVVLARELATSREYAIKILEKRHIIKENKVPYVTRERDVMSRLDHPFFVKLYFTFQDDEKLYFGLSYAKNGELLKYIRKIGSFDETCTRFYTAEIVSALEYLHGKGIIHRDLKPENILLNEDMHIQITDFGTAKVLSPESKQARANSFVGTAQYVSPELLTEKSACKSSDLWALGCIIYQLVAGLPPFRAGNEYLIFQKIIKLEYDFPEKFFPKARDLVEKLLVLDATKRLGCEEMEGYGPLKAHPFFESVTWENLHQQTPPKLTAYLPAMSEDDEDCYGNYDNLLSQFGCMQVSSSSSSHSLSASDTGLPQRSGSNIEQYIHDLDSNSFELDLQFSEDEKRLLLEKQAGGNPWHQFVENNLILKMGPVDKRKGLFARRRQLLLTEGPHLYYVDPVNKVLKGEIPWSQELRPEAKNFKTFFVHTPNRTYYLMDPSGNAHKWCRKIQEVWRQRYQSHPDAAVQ
Assay: PDK1 Kinase Alpha Screen Assay
Format: biochemical
Settings: Table 1; 10 μM ATP, 50 nM PDK1-4 peptide
Method: Reagents/Concentrations: The PDK1-4 peptide substrate, biotin-[…]-NH2, (SEQ ID NO: 1), was purchased from the Tufts University Core Facility. The final concentration of PDK1-4 peptide substrate was 50 nM. The ATP substrate (adenosine-[…] triphosphate) was purchased from Roche Diagnostics. The final concentration of ATP substrate was 10 μM. Phospho-(Ser/Thr) PKA substrate antibody was purchased from Cell Signaling Technology. The final concentration of antibody was 0.3 mg/mL. The Alpha Screen Protein A detection kit containing donor and acceptor beads was purchased from PerkinElmer Life Sciences. The final concentration of both donor and acceptor beads was 25 μg/mL. Alpha Screen was used for detection. The biotinylated-PDK1-4 peptide was phosphorylated by PDK1 kinase using the ATP substrate. The biotinylated-PDK1-4 peptide substrate was bound to the streptavidin coated donor bead. The antibody was bound to the protein A coated acceptor bead. The antibody bound to the phosphorylated form of the biotinylated PDK-1 peptide substrate, bringing the donor and acceptor beads into close proximity. Laser irradiation of the donor bead at 680 nm generated a flow of short-lived singlet oxygen molecules. When the donor and acceptor beads were in close proximity, the reactive oxygen generated by the irradiation of the donor beads initiated a luminescence/fluorescence cascade in the acceptor beads. This process led to a highly amplified signal with output in the 530-620 nm range. Assays were carried out in 50 mM Tris, pH=7.5, 10 mM MgCl2, 0.1% BSA, 0.01% Tween-20, 2 mM dithiolthreitol, 2.5% dimethyl sulfoxide. Reactions were stopped by adding 50 mM Tris, pH=7.5, 90 mM EDTA, 0.1% BSA, 0.01% Tween-20.
Procedure: To 10 μl, of PDK1-4 peptide, […] of test compound in dimethyl sulfoxide was added. PDK1 kinase and ATP were mixed, and 10 μL of the PDK1 kinase/ATP mix was added to start the reaction. The reaction was allowed to proceed for 3-18 hours. The reactions were then stopped by adding 10 μL of the EDTA-containing stop buffer. Beads were mixed with antibody, and 25 μL of the bead/antibody mix was then added to the stopped reactions. Plates were incubated at room temperature overnight to allow for detection development before being read. The assay was run in a 384-well format plate.

Row | SMILES | IC50
1 | C#Cc1ccc2nc(Nc3cccc(S(N)(=O)=O)c3)ncc2c1 [Example 60, 3-(6-ethynylquinazolin-2-ylamino)benzene-sulfonamide] | < 5 µM
2 | C#Cc1ccc2nc(Nc3cccc(NS(C)(=O)=O)c3)ncc2c1 [Example 61, N-(3-(6-ethynylquinazolin-2-ylamino)phenyl)-methane-sulfonamide] | < 5 µM
3 | COc1cc(-c2cnn(C)c2)cc2cnc(Nc3ccc(S(N)(=O)=O)cc3)nc12 [Example 62, 4-(8-methoxy-6-(1-methyl-1H-pyrazol-4-yl)-quinazolin-2-ylamino)-benzenesulfonamide] | < 5 µM
4 | COc1cc(-c2nccs2)cc2cnc(Nc3ccc(S(N)(=O)=O)cc3)nc12 [Example 63, 4-(8-methoxy-6-(thiazol-2-yl)quinazolin-2-ylamino)-benzenesulfonamide] | < 5 µM
5 | COc1cc(C#CC(C)(C)O)cc2cnc(Nc3ccc(S(N)(=O)=O)cc3)nc12 [Example 65, 4-(6-(3-hydroxy-3-methylbut-1-ynyl)-8-methoxyquinazolin-2-ylamino)benzenesulfonamide] | < 5 µM
6 | COc1cc(C#CC(C)(C)N)cc2cnc(Nc3ccc(S(N)(=O)=O)cc3)nc12 [Example 66, 4-(6-(3-amino-3-methylbut-1-ynyl)-8-methoxyquinazolin-2-ylamino)benzenesulfonamide] | 10 to 25 µM
7 | NS(=O)(=O)c1ccc(Nc2ncc3cc(-c4cc[nH]n4)ccc3n2)cc1 [Example 67, 4-(6-(1H-pyrazol-3-yl)-quinazolin-2-ylamino)-benzenesulfonamide] | < 5 µM
8 | CC(=O)Nc1ccc2nc(Nc3ccc(S(N)(=O)=O)cc3)ncc2c1 [Example 68, N-(2-(4-Sulfamoylphenylamino)quinazolin-6-yl)acetamide] | < 5 µM
9 | C#Cc1cc2cnc(Nc3ccc(N4CCOCC4)cc3)nc2cc1OC [Example 69, 6-ethynyl-7-methoxy-N-(4-morpholinophenyl)-quinazolin-2-amine] | < 5 µM
10 | C#Cc1cc(OC)c2nc(Nc3ccc(N4CCOCC4)cc3)ncc2c1 [Example 70, 6-ethynyl-8-methoxy-N-(4-morpholinophenyl)-quinazolin-2-amine] | < 5 µM
11 | C#Cc1ccc2nc(Nc3cccc(CN(C)C)c3)ncc2c1 [Example 71, N-(3-((dimethylamino)-methyl)phenyl)-6-ethynylquinazolin-2-amine] | < 5 µM
12 | C#Cc1ccc2nc(Nc3ccc(C(=O)NC(C)C)cc3)ncc2c1 [Example 72, 4-(6-ethynylquinazolin-2-ylamino)-N-isopropyl-benzamide] | < 5 µM
13 | C#Cc1cc2cnc(Nc3ccc(C(=O)NC(C)C)cc3)nc2cc1OC [Example 73, 4-(6-ethynyl-7-methoxy-quinazolin-2-ylamino)-N-isopropylbenzamide] | < 5 µM
14 | C#Cc1cc2cnc(Nc3ccc(C(=O)N4CCOCC4)cc3)nc2cc1OC [Example 74, (4-(6-ethynyl-7-methoxy-quinazolin-2-ylamino)-phenyl)(morpholino)-methanone] | < 5 µM
15 | NC(=O)c1ccc(Nc2ncc3cc(-c4nccs4)ccc3n2)cc1 [Example 75, 4-(6-(thiazol-2-yl)-quinazolin-2-ylamino)-benzamide] | < 5 µM
16 | N#Cc1ccc2nc(Nc3ccc(N4CCOCC4)cc3)ncc2c1 [Example 76, 2-(4-morpholinophenyl-amino)quinazoline-6-carbonitrile] | < 5 µM
17 | Brc1ccc2nc(Nc3ccc(N4CCOCC4)cc3)ncc2c1 [Example 77, 6-bromo-N-(4-morpholino-phenyl)quinazolin-2-amine] | < 5 µM
18 | N#Cc1ccc2nc(Nc3ccc(C(N)=O)cc3)ncc2c1 [Example 78, 4-(6-cyanoquinazolin-2-ylamino)benzamide] | < 5 µM

Row | SMILES | IC50
19 | NC(=O)c1ccc(Nc2ncc3cc(Br)ccc3n2)cc1 [Example 79, 4-(6-bromoquinazolin-2-ylamino)benzamide] | < 5 µM
20 | C#Cc1cc(OC)c2nc(Nc3cccc(N4CCOCC4)c3)ncc2c1 [Example 80, 6-ethynyl-8-methoxy-N-(3-morpholinophenyl)-quinazolin-2-amine] | < 5 µM
21 | C#Cc1ccc2nc(Nc3ccc(C(=O)N4CCOCC4)cc3)ncc2c1 [Example 81, (4-(6-ethynylquinazolin-2-ylamino)phenyl)-(morpholino)methanone] | < 5 µM
22 | C#Cc1ccc2nc(Nc3ccc(N4CCOCC4)c(CN(C)C)c3)ncc2c1 [Example 82, N-(3-((dimethylamino)-methyl)-4-morpholino-phenyl)-6-ethynyl-quinazolin-2-amine] | < 5 µM
23 | C#Cc1ccc2nc(Nc3cc(CN(C)C)cc(NC(C)=O)c3)ncc2c1 [Example 83, N-(3-((dimethylamino)-methyl)-5-(6-ethynyl-quinazolin-2-ylamino)-phenyl)acetamide] | < 5 µM
24 | CC(=O)Nc1cc(CN(C)C)cc(Nc2ncc3cc(-c4nccs4)ccc3n2)c1 [Example 84, N-(3-((dimethylamino)-methyl)-5-(6-(thiazol-2-yl)quinazolin-2-ylamino)-phenyl)acetamide] | < 5 µM
25 | C#Cc1cc2cnc(Nc3cc(CN(C)C)cc(NC(C)=O)c3)nc2cc1OC [Example 85, N-(3-((dimethylamino)methyl)-5-(6-ethynyl-7-methoxy-quinazolin-2-ylamino)-phenyl)acetamide] | < 5 µM
26 | C#Cc1cc(OC)c2nc(Nc3cc(CN(C)C)cc(NC(C)=O)c3)ncc2c1 [Example 86, N-(3-((dimethylamino)-methyl)-5-(6-ethynyl-8-methoxyquinazolin-2-ylamino)phenyl)acetamide] | < 5 µM
27 | COc1cc(-c2nccs2)cc2cnc(Nc3cc(CN(C)C)cc(NC(C)=O)c3)nc12 [Example 87, N-(3-((dimethylamino)-methyl)-5-(8-methoxy-6-(thiazol-2-yl)quinazolin-2-ylamino)phenyl)acetamide] | < 5 µM
28 | C#Cc1cc(OC)c2nc(Nc3cc(CN(C)C)cc(NC(C)=O)c3)ncc2c1Cl [Example 88, N-(3-(5-chloro-6-ethynyl-8-methoxyquinazolin-2-ylamino)-5-((dimethyl-amino)methyl)phenyl)-acetamide] | < 5 µM
29 | COc1cc(Br)c(Cl)c2cnc(Nc3ccc(C(=O)NC(C)C)cc3)nc12 [Example 89, 4-(6-bromo-5-chloro-8-methoxyquinazolin-2-ylamino)-N-isopropyl-benzamide] | < 5 µM
30 | C#Cc1ccc2nc(Nc3cc(CN(C)C)cc(NC(C)=O)c3)ncc2c1Cl [Example 90, N-(3-(5-chloro-6-ethynyl-quinazolin-2-ylamino)-5-((dimethylamino)methyl)-phenyl)acetamide] | < 5 µM
31 | CC(=O)Nc1cc(CN(C)C)cc(Nc2ncc3c(Cl)c(-c4nccs4)ccc3n2)c1 [Example 91, N-(3-(5-chloro-6-(thiazol-2-yl)quinazolin-2-ylamino)-5-((dimethyl-amino)methyl)phenyl)-acetamide] | < 5 µM
32 | CC(=O)Nc1cc(CN(C)C)cc(Nc2ncc3cc(-c4cncnc4)ccc3n2)c1 [Example 92, N-(3-((dimethylamino)-methyl)-5-(6-(pyrimidin-5-yl)quinazolin-2-ylamino)-phenyl)acetamide] | < 5 µM
33 | COc1ncccc1-c1ccc2nc(Nc3cc(CN(C)C)cc(NC(C)=O)c3)ncc2c1 [Example 93, N-(3-((dimethylamino)-methyl)-5-(6-(2-methoxy-pyridin-3-yl)quinazolin-2-ylamino)phenyl)acetamide] | 5 to 10 µM
34 | COc1ncccc1-c1cc(OC)c2nc(Nc3cc(CN(C)C)cc(NC(C)=O)c3)ncc2c1 [Example 94, N-(3-((dimethylamino)-methyl)-5-(8-methoxy-6-(2-methoxypyridin-3-yl)-quinazolin-2-ylamino)-phenyl)acetamide] | 5 to 10 µM
35 | COc1cc(-c2cncnc2)cc2cnc(Nc3cc(CN(C)C)cc(NC(C)=O)c3)nc12 [Example 95, N-(3-((dimethylamino)-methyl)-5-(8-methoxy-6-(pyrimidin-5-yl)-quinazolin-2-ylamino)-phenyl)acetamide] | < 5 µM
